Columns and labels:
Syk [1] = biological target: T1, Syk (Homo sapiens, UniProt P43405); test: Syk kinase inhibition (Syk IC50 of Table 1); assay type: biochemical
JAK2 = biological target: T2, JAK2 (Homo sapiens, UniProt O60674); test: Z'-LYTE kinase assay, JAK2 tyrosine phosphorylation activity; assay type: biochemical
T2 construct: 5 μl of catalytic domain recombinant Kinase enzyme+Tyr peptide substrate (Invitrogen, Calif.); purchased Invitrogen
Procedure, shortened: (§1)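 Catalytic-domain recombinant enzymes phosphorylate a coumarin/fluorescein-labelled Tyr6 peptide for 1 h at room temperature in the presence of ATP and compound (1% DMSO). Development Reagent then cleaves non-phosphorylated peptide over 1 h, and emission ratio 445/520 nm (ex 400 nm) gives percent phosphorylation; IC50 by 4-parameter logistic model.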

JAK3 = biological target: T3, JAK3 (Homo sapiens, UniProt P52333); test: Z'-LYTE kinase assay, JAK3 tyrosine phosphorylation activity; assay type: biochemical
T3 construct: 5 μl of catalytic domain recombinant Kinase enzyme+Tyr peptide substrate (Invitrogen, Calif.); purchased Invitrogen
Procedure, shortened: as §1

JAK1 = biological target: T4, JAK1 (Homo sapiens, UniProt P23458); test: Z'-LYTE kinase assay, JAK1 tyrosine phosphorylation activity; assay type: biochemical; details: read-out: JAK 1 IC50
T4 construct: 5 μl of catalytic domain recombinant Kinase enzyme+Tyr peptide substrate (Invitrogen, Calif.); purchased Invitrogen
Procedure, shortened: as §1

TYK2 = biological target: T5, TYK2 (Homo sapiens, UniProt P29597); test: Z'-LYTE kinase assay, TYK2 tyrosine phosphorylation activity; assay type: biochemical
T5 construct: 5 μl of catalytic domain recombinant Kinase enzyme+Tyr peptide substrate (Invitrogen, Calif.); purchased Invitrogen
T5 sequence (P29597 897-1176 limits assumed): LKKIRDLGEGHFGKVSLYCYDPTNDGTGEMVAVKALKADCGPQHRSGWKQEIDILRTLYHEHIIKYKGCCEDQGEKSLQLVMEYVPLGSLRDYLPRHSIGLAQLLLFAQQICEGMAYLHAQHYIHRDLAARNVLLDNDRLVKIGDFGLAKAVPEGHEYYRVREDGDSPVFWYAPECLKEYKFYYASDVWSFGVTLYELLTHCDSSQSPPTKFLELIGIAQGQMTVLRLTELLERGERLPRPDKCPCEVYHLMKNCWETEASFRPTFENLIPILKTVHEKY
Procedure, shortened: as §1

Syk [2] = biological target: T1, Syk; test: Syk IC50 (Table 1; method not given); assay type: biochemical
[3] = test system: IL4-induced phospho STAT6 formation in Ramos B lymphocytes; test: Inhibition of IL4-induced phospho STAT6 formation in Ramos B lymphocytes (flow cytometry); assay type: cell-based, human; details: Homo sapiens; for inhibition at 0.2 µM: 200 nM compound, read-out: % Inhibition of IL-4 Induced STAT6 Phosphorylation 200 nM; for inhibition at 1 µM: 1 μM compound, read-out: % Inhibition of IL-4 Induced STAT6 Phosphorylation 1 μM
Procedure, shortened: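 Read-out: phospho-STAT6 (Y641) mean fluorescent intensity by intracellular flow cytometry, expressed as inhibition of the IL4-induced signal. Ramos B lymphocytes were given compound for 1 h at 37°C, then 1 ng/ml IL4 for 10 min, before fixation and methanol permeabilization.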

T4 sequence (P23458 875-1153 limits assumed): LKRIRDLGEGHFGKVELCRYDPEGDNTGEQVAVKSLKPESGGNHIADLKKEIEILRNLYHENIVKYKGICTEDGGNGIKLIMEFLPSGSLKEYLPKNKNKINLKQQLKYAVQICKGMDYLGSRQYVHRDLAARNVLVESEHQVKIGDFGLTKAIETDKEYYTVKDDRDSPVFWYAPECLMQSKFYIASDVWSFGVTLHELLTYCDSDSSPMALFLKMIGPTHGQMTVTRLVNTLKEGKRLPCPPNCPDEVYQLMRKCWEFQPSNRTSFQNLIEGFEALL
T2 sequence (O60674 849-1124 limits assumed): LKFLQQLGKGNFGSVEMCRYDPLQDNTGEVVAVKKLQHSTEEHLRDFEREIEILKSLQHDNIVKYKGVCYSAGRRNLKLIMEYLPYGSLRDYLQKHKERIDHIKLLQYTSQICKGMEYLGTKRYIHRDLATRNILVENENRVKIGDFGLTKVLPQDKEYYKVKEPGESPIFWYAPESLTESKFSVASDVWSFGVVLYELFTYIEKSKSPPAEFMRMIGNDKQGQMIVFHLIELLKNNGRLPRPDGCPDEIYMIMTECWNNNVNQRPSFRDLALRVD
T3 sequence (P52333 822-1111 limits assumed): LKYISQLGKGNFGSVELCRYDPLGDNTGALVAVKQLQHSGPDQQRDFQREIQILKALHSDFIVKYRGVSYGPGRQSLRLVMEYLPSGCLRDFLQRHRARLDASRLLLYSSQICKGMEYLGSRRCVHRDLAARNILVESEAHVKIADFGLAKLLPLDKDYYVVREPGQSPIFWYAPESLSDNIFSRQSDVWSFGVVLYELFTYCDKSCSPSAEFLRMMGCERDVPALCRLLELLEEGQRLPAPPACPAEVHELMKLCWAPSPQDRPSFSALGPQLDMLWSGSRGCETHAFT

| Compound | IC50 (Syk [1]) | IC50 (JAK2) | IC50 (JAK3) | IC50 (JAK1) | IC50 (TYK2) | IC50 (Syk [2]) | inhibition at 0.2 µM [3] | inhibition at 1 µM [3] |
| --- | --- | --- | --- | --- | --- | --- | --- | --- |
| CN(C)[C@@H]1CCN(C(=O)Nc2cccc(Nc3cc(N[C@H](CO)c4ccccc4)c(C(N)=O)cn3)c2)C1 [Example 312, 6-(3-((R)-3-(dimethylamino)pyrrolidine-1-carboxamido)phenylamino)-4-((S)-2-hydroxy-1-phenylethylamino)nicotinamide] | > 1000 nM | 100 to 1000 nM | 1 to 10 nM | > 1000 nM | – | – | – | – |
| CC(=O)Nc1cccc(Nc2cc(NCc3ccccc3F)c(C(N)=O)cn2)c1 [Example 340, 6-(3-acetamidophenylamino)-4-(2-fluorobenzylamino)nicotinamide] | > 1000 nM | 100 to 1000 nM | 10 to 100 nM | 100 to 1000 nM | – | – | – | – |
| CCOC(=O)Nc1cccc(Nc2ncc(C(N)=O)c(NCc3ccccc3)n2)c1 [Example 31, ethyl 3-(4-(benzylamino)-5-carbamoylpyrimidin-2-ylamino)phenylcarbamate] | – | 100 to 1000 nM | 1 to 10 nM | 100 to 1000 nM | 10 to 100 nM | > 1000 nM | 13.7% | 37% |
| NC(=O)c1cnc(Nc2cccc(NC(=O)C3CCC3)c2)nc1NC1CCCC1 [Example 20, 2-(3-(cyclobutanecarboxamido)phenylamino)-4-(cyclopentylamino)pyrimidine-5-carboxamide] | – | 10 to 100 nM | 1 to 10 nM | 10 to 100 nM | 1 to 10 nM | 100 to 1000 nM | 41.3% | 89.6% |

Now from value to compound, other results behind:

| IC50 (Syk [1]) | IC50 (JAK2) | IC50 (JAK3) | IC50 (JAK1) | IC50 (TYK2) | IC50 (Syk [2]) | Compound | inhibition at 0.2 µM [3] | inhibition at 1 µM [3] |
| --- | --- | --- | --- | --- | --- | --- | --- | --- |
| – | 10 to 100 nM | 1 to 10 nM | 10 to 100 nM | 1 to 10 nM | 100 to 1000 nM | CC(=O)Nc1cccc(Nc2ncc(C(N)=O)c(NC3CCCCC3)n2)c1 [Example 52, 2-(3-acetamidophenylamino)-4-(cyclohexylamino)pyrimidine-5-carboxamide] | 63% | 94% |
| – | 10 to 100 nM | 1 to 10 nM | 100 to 1000 nM | 10 to 100 nM | > 1000 nM | COCC(=O)Nc1cccc(Nc2ncc(C(N)=O)c(N[C@H](C)c3ccccc3)n2)c1 [Example 47, (R)-2-(3-(2-methoxyacetamido)phenylamino)-4-(1-phenylethylamino)pyrimidine-5-carboxamide] | 25.3% | 77.7% |
| – | 10 to 100 nM | 1 to 10 nM | 100 to 1000 nM | 1 to 10 nM | > 1000 nM | NC(=O)c1cnc(Nc2cccc(NC(=O)C3CC3)c2)nc1NCc1ccccc1 [Example 26, 4-(benzylamino)-2-(3-(cyclopropanecarboxamido)phenylamino)pyrimidine-5-carboxamide] | 7.3% | 45.7% |
| – | 10 to 100 nM | < 1 nM | 10 to 100 nM | 1 to 10 nM | > 1000 nM | NC(=O)c1cnc(Nc2cccc(NC(=O)N3CCCC3)c2)nc1NCc1ccccc1 [Example 40, 4-(benzylamino)-2-(3-(pyrrolidine-1-carboxamido)phenylamino)pyrimidine-5-carboxamide] | 47.2% | 78.8% |
| – | 1 to 10 nM | < 1 nM | 10 to 100 nM | 1 to 10 nM | 100 to 1000 nM | CC(=O)Nc1cccc(Nc2ncc(C(N)=O)c(NCC3CCCN(C(N)=O)C3)n2)c1 (stereo not shown) [Example 117, 2-(3-acetamidophenylamino)-4-((1-carbamoylpiperidin-3-yl)methylamino)pyrimidine-5-carboxamide] | 4.5% | 29.5% |
| – | 10 to 100 nM | 1 to 10 nM | 100 to 1000 nM | 10 to 100 nM | > 1000 nM | C[C@@H](Nc1nc(Nc2cccc(NC(=O)N3CC=CC3)c2)ncc1C(N)=O)c1ccccc1 [Example 121, (R)-2-(3-(2,5-dihydro-1H-pyrrole-1-carboxamido)phenylamino)-4-(1-phenylethylamino)pyrimidine-5-carboxamide] | 18.3% | 61.7% |

— US8853230B2, “Inhibitors of JAK” (Portola Pharmaceuticals, Inc., priority 2009, dated 2014)
